The structures appear in SMILES notation.

The species named for one assay is Bos taurus. Description: Inhibition of trypsin, selectivity with respect to thrombin.
A short description of assay [1]: Compound was tested for inhibition of activated protein C. selectivity with respect to thrombin.
Assay [2] in a line: Compound was tested for inhibition of plasmin, selectivity with respect to thrombin.
Assay [3] in a line: Compound was tested for inhibition of tissue-type plasminogen activator (tissue plasminogen activator), selectivity with respect to thrombin.
Assay [4] is described as follows: Compound was tested for inhibition of streptokinase (SK). selectivity with respect to thrombin.
Another assay deals with T1, Serine protease 1 (Bos taurus, UniProt P00760).
T1 sequence (P00760 whole entry): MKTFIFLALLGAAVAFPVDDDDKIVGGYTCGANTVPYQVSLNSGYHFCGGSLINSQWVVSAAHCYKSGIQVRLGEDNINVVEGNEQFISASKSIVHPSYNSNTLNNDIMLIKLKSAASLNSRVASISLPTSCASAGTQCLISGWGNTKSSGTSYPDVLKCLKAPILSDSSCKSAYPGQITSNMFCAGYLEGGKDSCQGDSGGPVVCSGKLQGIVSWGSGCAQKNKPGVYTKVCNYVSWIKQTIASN
Description: Inhibition of bovine trypsin.

For the next assay, the target named is Prothrombin (Homo sapiens, UniProt P00734). The assay can be described thus: Inhibition of human alpha-thrombin.

In the assay filed under Bos taurus, `CN[C@H](Cc1ccccc1)C(=O)N1CCC[C@H]1C(=O)N[C@@H](CCCN=C(N)N)C(=O)c1nc2c(s1)CCCC2` returned a Selectivity of 1.3.
Take `CN[C@H](Cc1ccccc1)C(=O)N1CCC[C@H]1C(=O)N[C@H](C=O)CCCNC(=N)N`: the Selectivity turned out to be 72 in assay [1]; 33 in assay [2]; 130 in assay [3]; 170 in assay [4]; 0.39 in the assay listed under Bos taurus.
With `Cc1ccc(S(=O)(=O)NC(=N)NCCC[C@H](NC(=O)[C@@H]2CCCN2C(=O)[C@@H](Cc2ccccc2)N(C)C(=O)OCc2ccccc2)C(O)c2nc3ccccc3s2)cc1` (some centres undefined), the Ki was > 150000 nM on Serine protease 1 and 5300 nM on Prothrombin.
As to `CN[C@H](Cc1ccccc1)C(=O)N1CCC[C@H]1C(=O)N[C@@H](CCCN=C(N)N)C(=O)C1=NC(=O)C2C=CC=CC2=N1` (some centres undefined), the Ki on Serine protease 1 came to 8.2 nM; at Prothrombin it was 15 nM. Moreover, the Selectivity in the assay filed under Bos taurus came to 0.6.
`CN[C@H](Cc1ccccc1)C(=O)N1CCC[C@H]1C(=O)N[C@@H](CCCN=C(N)N)C(=O)c1nccs1` came in with a Selectivity in the assay listed under Bos taurus of 0.4.
As for `CN[C@H](Cc1ccccc1)C(=O)N1CCC[C@H]1C(=O)N[C@@H](CCCN=C(N)N)C(=O)c1nc2ccccc2o1`, the Ki on Serine protease 1 turned out to be 2.9 nM; at Prothrombin, 3.8 nM. The Selectivity in the assay listed under Bos taurus was 0.8.
As to `CN[C@H](Cc1ccccc1)C(=O)N1CCC[C@H]1C(=O)N[C@@H](CCCNC(=N)N)C(=O)c1ccccn1`, the Ki was 73 nM at Serine protease 1 and 85 nM at Prothrombin. Also, in the assay filed under Bos taurus, the Selectivity turned out to be 0.8.
Regarding `CN[C@H](Cc1ccccc1)C(=O)N1CCC[C@H]1C(=O)N[C@@H](CCCN=C(N)N)C(=O)c1nc2ccccc2s1`, the Selectivity in assay [1] is 19000; in assay [2], 12000; in assay [3] it was 3300; in assay [4], 6300; in the assay listed under Bos taurus it was 16. Further, the Ki on Prothrombin was found to be 0.19 nM.
For the compound `CN[C@H](Cc1ccccc1)C(=O)N1CCC[C@H]1C(=O)N[C@@H](CCCN=C(N)N)C(=O)c1nc2ccccc2[nH]1`, in the assay filed under Bos taurus, the Selectivity was 3.2.
For `CN[C@H](Cc1ccccc1)C(=O)N1CCC[C@H]1C(=O)N[C@@H](CCCNC(=N)N)C(=O)c1nc2ccccc2[nH]1`, the Ki is 38 nM at Serine protease 1 and 12 nM on Prothrombin.
For the compound `CN[C@H](Cc1ccccc1)C(=O)N1CCC[C@H]1C(=O)N[C@@H](CCCNC(=N)N)C(=O)c1nc2c(s1)CCCC2`, the figures for the Ki on Serine protease 1 and on Prothrombin were 4.4 nM and 3.4 nM, respectively.
In the same order, the values of `Cc1ccc(S(=O)(=O)N/C(N)=N\CCC[C@@H](NC(=O)[C@H]2CCCN2C(=O)[C@H](Cc2ccccc2)N(C)C(=O)OCc2ccccc2)C(O)c2nc3ccccc3s2)cc1` (some centres undefined) are > 150000 nM and 16000 nM.
As for `CN[C@H](Cc1ccccc1)C(=O)N1CCC[C@H]1C(=O)N[C@@H](CCCNC(=N)N)C(=O)c1nccn1C`, in the assay filed under Bos taurus, the Selectivity is 88.
Regarding `CN[C@H](Cc1ccccc1)C(=O)N1CCC[C@H]1C(=O)N[C@@H](CCCNC(=N)N)C(=O)c1nccs1`, the Ki turned out to be 1.6 nM at Serine protease 1 and 3.6 nM on Prothrombin.
Turning to `CN[C@H](Cc1ccccc1)C(=O)N1CCC[C@H]1C(=O)N[C@@H](CCCNC(=N)N)C(=O)c1nc2ccccc2n1C`, the Ki at Serine protease 1 was 290 nM; on Prothrombin it was 8.1 nM. In addition, the Selectivity in the assay filed under Bos taurus came out at 36.
As to `CN[C@H](Cc1ccccc1)C(=O)N1CCC[C@H]1C(=O)N[C@@H](CCCN=C(N)N)C(=O)c1nccn1C`, the Ki on Serine protease 1 stood at 4400 nM; on Prothrombin, 50 nM.

What is called Ki is a dissociation constant, usually derived from enzyme kinetics or from competition with a known ligand. Read a low Ki as higher affinity.

The values are drawn from ChEMBL document CHEMBL1129256, “Potent thrombin inhibitors that probe the S1 subsite: tripeptide transition state analogues based on a heterocycle-activated carbonyl group” (J Med Chem, 1996).
